{
  "source": "patent US10864212B2",
  "about": "“Compositions and methods for treating retinal degradation” (University of Kentucky Research Foundation, priority 2013, dated 2020)",
  "key": {"[1]": {"tested_on": "IL-1 beta", "assay": "MSU-induced IL-1 beta secretion from PMA-differentiated THP-1 monocytes (ELISA)", "format": "cell-based, human", "conditions": "co-administration at 25-1000 uM, FIG. 11, 12", "description": "Human THP-1 monocytes were differentiated into macrophages with PMA.\nTo illustrate this, human THP-1 monocytes were differentiated into macrophages with PMA. Treatment with MSU increased IL-1 beta secretion compared to non-treated cells."}, "[2]": {"tested_on": "Alu RNA", "assay": "Northern blot of Alu RNA levels in primary human RPE cells", "format": "cell-based", "description": "FIG. 4 provides another example of the results of Northern blotting using an Alu-specific probe.\nFIG. 45 is a Northern blot of biotin-UTP-labeled Alu RNA-transfected primary human RPE cells.\nAs presented in FIG. 3, primary human RPE cells treated with antisense oligonucleotides targeting DICER1 (Dcr as) (lane 3 (third lane from left)) show increased Alu RNA levels in the nuclear compartment compared to control antisense oligonucleotides (Ctr as) (lane 1 (leftmost)), monitored by Northern blotting using an Alu-specific probe.\nFor example, primary human RPE cells may be transfected with Alu RNA, with or without d4T. […] U6 (bottom row) is shown as loading control for nuclear fraction in FIG. 4.\nAnd FIG. 45 presents a Northern blot of biotin-UTP-labeled Alu RNA-transfected primary human RPE cells."}, "[3]": {"tested_on": "mitochondrial reactive oxygen species (mtROS)", "assay": "MitoSox assay of mitochondrial ROS in primary human RPE cells with Alu expressing plasmid", "format": "cell-based", "conditions": "pAluA vs pUC19, after 15 hours, FIG. 15, 54", "description": "After 15 hours cells were co-stained for mtROS (red) and for cell count, nuclei (blue; Hoechst DNA stain).\nIn FIG. 54, mitochondrial reactive oxygen species (ROS) were visualized with MitoSox (Red) and cell nuclei with Hoechst (Blue)."}, "[4]": {"biological_target": "T1, rat P2X7 receptor (Rattus norvegicus, UniProt Q64663)", "T1 construct": "expressed in transfected cells", "T1 sequence (Q64663 1-595)": "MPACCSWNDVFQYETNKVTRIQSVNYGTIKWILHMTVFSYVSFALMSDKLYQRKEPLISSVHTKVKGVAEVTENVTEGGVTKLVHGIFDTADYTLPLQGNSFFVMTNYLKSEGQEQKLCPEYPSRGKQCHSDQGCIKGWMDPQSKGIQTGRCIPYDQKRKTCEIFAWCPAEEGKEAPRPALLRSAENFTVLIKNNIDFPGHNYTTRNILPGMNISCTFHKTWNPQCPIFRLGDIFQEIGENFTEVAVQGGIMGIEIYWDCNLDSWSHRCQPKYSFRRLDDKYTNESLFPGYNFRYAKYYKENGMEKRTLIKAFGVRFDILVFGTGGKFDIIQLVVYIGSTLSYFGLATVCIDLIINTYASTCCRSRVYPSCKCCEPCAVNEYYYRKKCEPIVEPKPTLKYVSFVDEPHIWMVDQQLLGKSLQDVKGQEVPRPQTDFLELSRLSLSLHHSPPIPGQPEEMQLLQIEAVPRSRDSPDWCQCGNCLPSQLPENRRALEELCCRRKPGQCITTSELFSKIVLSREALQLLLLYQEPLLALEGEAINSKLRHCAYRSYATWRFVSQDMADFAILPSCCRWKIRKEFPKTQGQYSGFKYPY", "assay": "Patch clamp analysis of P2X7 cation channel function, HEK293 stable cell line expressing rat P2X7 receptor", "format": "cell-based"}, "[5]": {"tested_on": "NLRP3 mRNA", "assay": "NLRP3 priming (mRNA) induced by Alu RNA in primary human RPE cells", "format": "cell-based", "conditions": "Alu RNA transfection, 16 hours, d4T 100 uM, FIG. 13", "description": "Indeed, as provided in the bar graph of FIG. 13, Alu RNA transfection increases NLRP3 mRNA levels in primary human RPE cells at 16 hours, an event termed “priming” (Y-axis) compared to mock (transfection reagent alone)."}, "[6]": {"tested_on": "IRAK4", "assay": "Western blot of IRAK4 phosphorylation in primary mouse RPE cells transfected with Alu RNA", "format": "cell-based", "conditions": "FIG. 44"}, "[7]": {"tested_on": "IL-1 beta mRNA", "assay": "IL-1beta priming (mRNA) induced by Alu RNA in primary human RPE cells", "format": "cell-based", "conditions": "Alu RNA transfection, 24 hours, d4T 100 uM, FIG. 14", "description": "FIG. 14 illustrates, in graph format, that Alu RNA transfection increases IL-1 beta mRNA levels in primary human RPE cells at 24 hours, an event termed “priming”, (Y-axis) compared to mock (transfection reagent alone).\nFIG. 14 illustrates that Alu RNA transfection increases IL-1 beta mRNA levels in primary human RPE cells at 24 hours, an event termed “priming”, (Y-axis) compared to mock (transfection reagent alone)."}, "[8]": {"tested_on": "IL-1 beta", "assay": "LPS/ATP-induced IL-1 beta activation in primary mouse bone marrow-derived macrophages (Western blot)", "format": "cell-based", "conditions": "FIG. 39", "description": "To determine whether LPS/ATP-induced inflammasome activation can be inhibited without RT inhibition, the present inventors utilized thymidine kinase-deficient (Raji/TK^−) and -expressing (Raji/TK^+) cells (Balzarini et al., 1989). After addition of AZT, […], but not TK^− cells, the present inventors produced AZT-triphosphate (AZT-TP), the AZT metabolite required for RT inhibition (FIG. 40; FIG. 46, FIG. 47, FIG. 48, FIG. 49, FIG. 50).\nFIGS. 38-41 illustrate that NRTIs block LPS/ATP-induced inflammasome activation. […] Representative images of n=3-4 experiments are provided in each of FIGS. 38-41."}, "[9]": {"tested_on": "Caspase-1", "assay": "LPS/nigericin-induced Caspase-1 activation in mouse bone marrow-derived macrophages (Western blot)", "format": "cell-based", "conditions": "d4T 100, 250 uM, FIG. 10", "description": "To produce FIG. 10, cell culture supernatants were collected after (i) no treatment, (ii) LPS treatment, or (iii) LPS/nigericin treatment of mouse bone marrow-derived macrophages and run on Western blotting probing with antibodies for IL-1 beta and Caspase-1.\nCell culture supernatants were collected after (i) no treatment, (ii) LPS treatment, or (iii) LPS/nigericin treatment of mouse bone marrow-derived macrophages, and run on Western blotting probing with antibodies for IL-1 beta and Caspase-1."}, "[10]": {"tested_on": "graft-versus-host disease", "assay": "Graft-versus-host disease model, mice receiving allogeneic bone marrow and T cells", "format": "in vivo, mouse", "conditions": "saline treated controls 0%", "description": "To explore the potential therapeutic relevance of NRTIs beyond the Alu-induced model of geographic atrophy (GA), it was hypothesized that if NRTIs function as generic inflammasome inhibitors, then they might be broadly useful in other animal models of disease that are also driven by P2X7."}, "[11]": {"tested_on": "IRAK4", "assay": "Western blot of IRAK4 phosphorylation in primary human RPE cells transfected with Alu RNA", "format": "cell-based", "conditions": "FIG. 34", "description": "Alu RNA mediates RPE cell death via activation of Caspase 1 and the NLRP3 inflammasome (Tarallo et al., 2012)."}},
  "note": "“Also recorded” adds a separate entry of the source.",
  "data": [
    {"smiles": "Cc1cn([C@H]2C=C[C@@H](CO)O2)c(=O)[nH]c1=O", "note": "[d4T, 2′3′ dideoxythymidine]", "values": [
      {"measurement": "IL-1 beta secretion induced by MSU", "setting": "[1]", "result": "does not prevent P2X7-independent interleukin 1-beta secretion; also recorded: did not significantly affect IL-1beta secretion"},
      {"measurement": "Alu RNA levels (normalized to u6 RNA)", "setting": "[2]; biotin-UTP-labeled Alu RNA-transfected primary human RPE cells, FIG. 45", "result": "without reducing Alu RNA levels; also recorded: did not reduce Alu RNA levels"},
      {"measurement": "Alu RNA levels in nuclear fraction", "setting": "[2]; human RPE cells transfected with Alu RNA, 1, 4, or 24 hours after transfection, FIG. 4", "result": "does not change Alu RNA levels"},
      {"measurement": "Alu RNA levels in nuclear compartment", "setting": "[2]; primary human RPE cells treated with antisense oligonucleotides targeting DICER1, FIG. 3", "result": "does not reduce Alu RNA levels"},
      {"measurement": "Mitochondrial ROS (mtROS) caused by Alu expression (MitoSox)", "setting": "[3]", "result": "blocks mitochondrial ROS (mtROS) production; also recorded: reduces mitochondrial ROS caused by Alu expression; also recorded: prevents pAlu-induced mitochondrial ROS generation"},
      {"measurement": "P2X7 cation channel function (patch clamp)", "setting": "[4]", "result": "did not significantly modulate P2X7 cation channel function"},
      {"measurement": "NLRP3 mRNA levels (priming), normalized to 18S RNA", "setting": "[5]", "result": "blunted"},
      {"measurement": "IRAK4 phosphorylation", "setting": "[6]", "result": "blocks phosphorylation of IRAK4"},
      {"measurement": "IL-1 beta mRNA levels (priming), normalized to 18S RNA", "setting": "[7]", "result": "blunted"},
      {"measurement": "IL-1 beta activation / secretion of mature IL-1 beta, LPS/ATP", "setting": "[8]", "result": "blocks secretion of mature IL-1 beta; also recorded: blocked IL-1 beta"},
      {"measurement": "Caspase-1 activation (active p20 band) induced by nigericin", "setting": "[9]", "result": "inhibits"},
      {"measurement": "Survival", "setting": "[10]", "result": "30-70%"},
      {"measurement": "IRAK4 phosphorylation", "setting": "[11]", "result": "blocks phosphorylation of IRAK4"}
    ]}
  ]
}
